Results reported in BigSolDB 2.1.

O=[N+]([O-])N(CCO)CCO.O=[N+]([O-])O.O=[N+]([O-])O
solubility (mole fraction) (in 1,2-dichloroethane, 283.15 K): 0.388 | solubility (mole fraction) (in 1,2-dichloroethane, 288.15 K): 0.441 | solubility (mole fraction) (in 1,2-dichloroethane, 293.15 K): 0.524 | solubility (mole fraction) (in 1,2-dichloroethane, 298.15 K): 0.587 | solubility (mole fraction) (in 1,2-dichloroethane, 303.15 K): 0.641 | solubility (mole fraction) (in 1,2-dichloroethane, 308.15 K): 0.704 | solubility (mole fraction) (in 1,2-dichloroethane, 313.15 K): 0.787 | solubility (mole fraction) (in 1,4-dioxane, 283.15 K): 0.191 | solubility (mole fraction) (in 1,4-dioxane, 288.15 K): 0.245 | solubility (mole fraction) (in 1,4-dioxane, 293.15 K): 0.318 | solubility (mole fraction) (in 1,4-dioxane, 298.15 K): 0.371 | solubility (mole fraction) (in 1,4-dioxane, 303.15 K): 0.425 | solubility (mole fraction) (in 1,4-dioxane, 308.15 K): 0.488 | solubility (mole fraction) (in 1,4-dioxane, 313.15 K): 0.562 | solubility (mole fraction) (in DMSO, 283.15 K): 0.0407 | solubility (mole fraction) (in DMSO, 288.15 K): 0.0506 | solubility (mole fraction) (in DMSO, 293.15 K): 0.0633 | solubility (mole fraction) (in DMSO, 298.15 K): 0.0785 | solubility (mole fraction) (in DMSO, 303.15 K): 0.107 | solubility (mole fraction) (in DMSO, 308.15 K): 0.132 | solubility (mole fraction) (in DMSO, 313.15 K): 0.163 | solubility (mole fraction) (in acetone, 283.15 K): 0.234 | solubility (mole fraction) (in acetone, 288.15 K): 0.26 | solubility (mole fraction) (in acetone, 293.15 K): 0.321 | solubility (mole fraction) (in acetone, 298.15 K): 0.384 | solubility (mole fraction) (in acetone, 303.15 K): 0.439 | solubility (mole fraction) (in acetone, 308.15 K): 0.536 | solubility (mole fraction) (in acetone, 313.15 K): 0.645 | solubility (mole fraction) (in acetonitrile, 283.15 K): 0.182 | solubility (mole fraction) (in acetonitrile, 288.15 K): 0.258 | solubility (mole fraction) (in acetonitrile, 293.15 K): 0.314 | solubility (mole fraction) (in acetonitrile, 298.15 K): 0.36 | solubility (mole fraction) (in acetonitrile, 303.15 K): 0.456 | solubility (mole fraction) (in acetonitrile, 308.15 K): 0.519 | solubility (mole fraction) (in acetonitrile, 313.15 K): 0.558 | solubility (mole fraction) (in dichloromethane, 283.15 K): 0.0359 | solubility (mole fraction) (in dichloromethane, 288.15 K): 0.0615 | solubility (mole fraction) (in dichloromethane, 293.15 K): 0.109 | solubility (mole fraction) (in dichloromethane, 298.15 K): 0.205 | solubility (mole fraction) (in dichloromethane, 303.15 K): 0.367 | solubility (mole fraction) (in dichloromethane, 308.15 K): 0.448 | solubility (mole fraction) (in dichloromethane, 313.15 K): 0.515 | solubility (mole fraction) (in ethanol, 283.15 K): 0.00314 | solubility (mole fraction) (in ethanol, 288.15 K): 0.00518 | solubility (mole fraction) (in ethanol, 293.15 K): 0.00751 | solubility (mole fraction) (in ethanol, 298.15 K): 0.00986 | solubility (mole fraction) (in ethanol, 303.15 K): 0.0118 | solubility (mole fraction) (in ethanol, 308.15 K): 0.0131 | solubility (mole fraction) (in ethanol, 313.15 K): 0.0139 | solubility (mole fraction) (in ethyl acetate, 283.15 K): 0.131 | solubility (mole fraction) (in ethyl acetate, 288.15 K): 0.17 | solubility (mole fraction) (in ethyl acetate, 293.15 K): 0.209 | solubility (mole fraction) (in ethyl acetate, 298.15 K): 0.285 | solubility (mole fraction) (in ethyl acetate, 303.15 K): 0.31 | solubility (mole fraction) (in ethyl acetate, 308.15 K): 0.334 | solubility (mole fraction) (in ethyl acetate, 313.15 K): 0.362 | solubility (mole fraction) (in methanol, 283.15 K): 0.00238 | solubility (mole fraction) (in methanol, 288.15 K): 0.00469 | solubility (mole fraction) (in methanol, 293.15 K): 0.0076 | solubility (mole fraction) (in methanol, 298.15 K): 0.0106 | solubility (mole fraction) (in methanol, 303.15 K): 0.0126 | solubility (mole fraction) (in methanol, 308.15 K): 0.0166 | solubility (mole fraction) (in methanol, 313.15 K): 0.0207 | solubility (mole fraction) (in toluene, 283.15 K): 0.0112 | solubility (mole fraction) (in toluene, 288.15 K): 0.0143 | solubility (mole fraction) (in toluene, 293.15 K): 0.0177 | solubility (mole fraction) (in toluene, 298.15 K): 0.0252 | solubility (mole fraction) (in toluene, 303.15 K): 0.0276 | solubility (mole fraction) (in toluene, 308.15 K): 0.032 | solubility (mole fraction) (in toluene, 313.15 K): 0.0374
